A short description of experiment [1]: Inhibition of EGFR Del ex19 mutant in human PC9 cells assessed as suppression of cell proliferation.
Experiment [2] in a line: Inhibition of wild type EGFR in human NCI-H1666 cells assessed as suppression of cell proliferation.
The nature of experiment [3]: Inhibition of EGFR Del ex19 mutant in human HCC827 cells assessed as suppression of cell proliferation.
The nature of experiment [4]: Inhibition of EGFR Del ex19/T790M double mutant in human PC9 cells assessed as suppression of cell proliferation.
Experiment [5] in a line: Inhibition of EGFR L858R/T790M double mutant in human NCI-H1975 cells assessed as suppression of cell proliferation.

A word on the IC50: it is the concentration that gives 50% inhibition.

Regarding `C=CC(=O)N1CC[C@@H](Oc2nc(Nc3ccc(N4CCC(N5CCN(C)CC5)CC4)cc3)c(C(N)=O)nc2CC)C1` [US9085540, 54], the IC50 turned out to be 8 nM in experiment [1]; 230 nM in experiment [2]; 8 nM in experiment [3]; 8 nM in experiment [4]; 8 nM in experiment [5].

These data come from BindingDB's records for doi:10.1016/j.bmcl.2016.02.067 (Pfizer, 2016).
